Activity calls are given as the source filed them. The rule behind the calls is not given here. Residues, ends and D or L forms follow the SMILES beside them.

By IC50 is commonly meant the point on the concentration scale where inhibition reaches its midpoint. The term Kd denotes the concentration at which binding is half-saturated.

The target in assay [1] is T1, Angiotensin-converting enzyme (Homo sapiens, UniProt P12821). Kind of assay: Inhibition of ACE (unknown origin) preincubated with compound for 5 mins and measured after 60 mins.
T1 sequence (P12821 whole entry): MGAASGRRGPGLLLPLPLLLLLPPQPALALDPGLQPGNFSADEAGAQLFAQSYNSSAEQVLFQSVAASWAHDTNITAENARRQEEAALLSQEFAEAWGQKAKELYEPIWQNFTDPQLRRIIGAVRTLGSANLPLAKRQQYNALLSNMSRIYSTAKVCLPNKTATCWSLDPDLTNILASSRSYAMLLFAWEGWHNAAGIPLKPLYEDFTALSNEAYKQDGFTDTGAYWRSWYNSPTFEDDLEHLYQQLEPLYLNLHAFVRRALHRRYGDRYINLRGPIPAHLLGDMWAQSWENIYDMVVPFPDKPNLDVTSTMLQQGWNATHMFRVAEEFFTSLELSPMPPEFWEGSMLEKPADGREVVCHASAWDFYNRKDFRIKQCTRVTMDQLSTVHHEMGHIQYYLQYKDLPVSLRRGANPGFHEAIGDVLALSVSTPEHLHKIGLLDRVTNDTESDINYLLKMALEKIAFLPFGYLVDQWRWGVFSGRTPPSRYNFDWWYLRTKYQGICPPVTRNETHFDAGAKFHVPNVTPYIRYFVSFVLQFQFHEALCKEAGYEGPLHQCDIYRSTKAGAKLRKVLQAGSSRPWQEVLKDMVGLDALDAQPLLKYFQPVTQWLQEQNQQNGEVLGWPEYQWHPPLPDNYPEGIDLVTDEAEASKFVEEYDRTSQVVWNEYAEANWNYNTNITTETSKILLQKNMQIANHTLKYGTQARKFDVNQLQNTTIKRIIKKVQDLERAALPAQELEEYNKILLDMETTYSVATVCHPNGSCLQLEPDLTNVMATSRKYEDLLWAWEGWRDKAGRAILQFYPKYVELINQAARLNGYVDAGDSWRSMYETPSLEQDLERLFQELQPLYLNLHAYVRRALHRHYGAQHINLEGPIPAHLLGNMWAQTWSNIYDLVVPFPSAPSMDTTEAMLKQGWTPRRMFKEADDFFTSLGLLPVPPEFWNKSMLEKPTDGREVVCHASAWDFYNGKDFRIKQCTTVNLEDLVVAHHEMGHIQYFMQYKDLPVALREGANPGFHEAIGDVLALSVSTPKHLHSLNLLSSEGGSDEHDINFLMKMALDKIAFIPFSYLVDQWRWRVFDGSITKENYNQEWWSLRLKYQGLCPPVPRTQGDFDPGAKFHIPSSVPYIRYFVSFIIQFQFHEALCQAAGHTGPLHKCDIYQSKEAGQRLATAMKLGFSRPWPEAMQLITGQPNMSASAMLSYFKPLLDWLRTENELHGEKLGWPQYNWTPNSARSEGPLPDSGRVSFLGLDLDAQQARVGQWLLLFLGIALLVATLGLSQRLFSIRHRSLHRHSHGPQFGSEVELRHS
The target in assay [2] is T1, Angiotensin-converting enzyme. Kind of assay: Binding affinity to ACE (unknown origin) assessed as change in entropy (-TdeltaS) at 800 to 1400 nM by isothermal titration calorimetric analysis. Conditions: dose 800-1400 nM. In general terms: In ITC the heat of successive injections is recorded.
Assay [3] shares this target. In words: Binding affinity to ACE (unknown origin) assessed as change in enthalpy at 800 to 1400 nM by isothermal titration calorimetric analysis. Conditions: dose 800-1400 nM.
The target is the same in assay [4]. In words: Binding affinity to ACE (unknown origin) assessed as change in entropy (deltaS) at 800 to 1400 nM by isothermal titration calorimetric analysis. Conditions: dose 800-1400 nM.
The target is the same in assay [5]. Kind of assay: Binding affinity to ACE (unknown origin) assessed as change in Gibbs free energy at 800 to 1400 nM by isothermal titration calorimetric analysis. Conditions: dose 800-1400 nM.
For assay [6] the target is unchanged. Kind of assay: Binding affinity to ACE (unknown origin) assessed as dissociation constant by isothermal titration calorimetric analysis.
For assay [7] the target is unchanged. In words: Binding affinity to ACE (unknown origin) measured at 20 mins.

With `NCC(=O)N[C@@H](CCC(=O)O)C(=O)N1CCC[C@H]1C(=O)N[C@@H](Cc1ccccc1)C(=O)O` (H-GEPF-OH), in assay [1], the IC50 stood at 36.1 µM.
With `N=C(N)NCCC[C@H](NC(=O)[C@@H]1CCCN1C(=O)[C@H](CC(N)=O)NC(=O)CN)C(=O)O` (H-GNPR-OH), the IC50 in assay [1] was 3050 µM.
For the compound `C[C@H](NC(=O)[C@H](CCCCN)NC(=O)[C@H](C)NC(=O)[C@@H](N)CCCCN)C(=O)O` (H-KAKA-OH), in assay [1], the IC50 came out at 667 µM.
Same read-out and setting: the value for `C[C@H](NC(=O)[C@@H](N)CCCCN)C(=O)N[C@@H](CCCCN)C(=O)N[C@@H](Cc1ccccc1)C(=O)O` (H-KAKF-OH) was 12.5 µM; that for `CC[C@H](C)[C@H](NC(=O)[C@H](CCCCN)NC(=O)[C@H](C)NC(=O)[C@@H](N)CCCCN)C(=O)O` (H-KAKI-OH) was 6890 µM.
As for `CC(C)C[C@H](NC(=O)[C@H](CCCCN)NC(=O)[C@H](C)NC(=O)[C@@H](N)CCCCN)C(=O)O` (H-KAKL-OH), in assay [1], the IC50 stood at 2620 µM.
Turning to `CSCC[C@H](NC(=O)[C@H](CCCCN)NC(=O)[C@H](C)NC(=O)[C@@H](N)CCCCN)C(=O)O` (H-KAKM-OH), the concentration for half-maximal inhibition (IC50) in assay [1] came out at 789 µM.
For `C[C@H](NC(=O)[C@@H](N)CCCCN)C(=O)N[C@@H](CCCCN)C(=O)N1CCC[C@H]1C(=O)O` (H-KAKP-OH), the -TdeltaS in assay [2] is -7.51 kcal/mol. In addition, in assay [3], the deltaH was -1.84 kcal/mol. Besides, in assay [1], the IC50 came out at 7.23 µM. Also, the deltaS in assay [4] worked out at 25.2 cal/mol.K. The deltaG in assay [5] is -9.35 kcal/mol. Also, the Kd in assay [6] is 0.141 µM. In assay [7], the outcome was Active.
With `CC(C)[C@H](NC(=O)[C@H](CCCCN)NC(=O)[C@H](C)NC(=O)[C@@H](N)CCCCN)C(=O)O` (H-KAKV-OH), the concentration for half-maximal inhibition (IC50) in assay [1] was 2920 µM.

These data come from ChEMBL document CHEMBL6177964 (Eur J Med Chem, 2025).
